Results reported in patent publication US20240368163A1, “COMPOUNDS AND METHODS FOR MODULATING SPLICING” (REMIX THERAPEUTICS INC., priority 2021, published 2024).
pIC50: −log10 of the molar value. Like-named read-outs stand apart in the source and are kept apart here.

Assays:
Type in all cases: cell-based, human
[1] = tested on: HTT; assay: Splicing RT-qPCR assay, HTT mRNA canonical junction (CJ) and alternative junction (AJ); conditions: for AC50: increase in AJ mRNA
Procedure: (§1) Compounds described herein were used to modulate RNA transcript abundance in cells. The expression of a target mRNA was measured by detecting the formation of an exon-exon junction in the canonical transcript (CJ). A compound mediated exon-inclusion event was detected by observing an increase in formation of a new junction with an alternative exon (AJ). Real-time qPCR assays were used to detect these splicing switches and interrogate the potency of various compounds towards different target genes. A high-throughput real time quantitative PCR (RT-qPCR) assay was developed to measure these two isoforms of the mRNA (CJ and AJ) for exemplary genes, such as HTT, SMN2, and MYB, together with a control housekeeping gene, GAPDH or GUSB or PPIA, used for normalization. Briefly, the A673 or K562 cell line was treated with various compounds described herein (e.g., compounds of Formula (I)). After treatment, the levels of the HTT, MYB, or SMN2 mRNA targets were determined from each sample of cell lysate by cDNA synthesis followed by qPCR.
(§2) The A673 cell line was cultured in DMEM with 10% FBS. Cells were diluted with full growth media and plated in a 96-well plate (15,000 cells in 100 ul media per well). The plate was incubated at 37° C. with 5% CO2 for 24 hours to allow cells to adhere. An 11-point 3-fold serial dilution of the compounds was made in DMSO then diluted in media in an intermediate plate. Compounds were transferred from the intermediate plate to the cell plate with the top dose at a final concentration of 10 uM in the well. Final DMSO concentration was kept at or below 0.25%. The cell plate was returned to the incubator at 37° C. with 5% CO2 for an additional 24 hours.
(§3) The K562 cell line was cultured in IMDM with 10% FBS. For K562, cells were diluted with full growth media and plated in either a 96-well plate (50,000 cells in 50 uL media per well) or a 384-well plate (8,000-40,000 cells in 45 uL media per well). An 11-point 3-fold serial dilution of the compounds were made in DMSO then diluted in media in an intermediate plate. Compound was transferred from the intermediate plate to the cell plate with the top dose at a final concentration of 10 uM in the well. Final DMSO concentration was kept at or below 0.25%. Final volume was 100 uL for 96-well plate and 50 uL for 384-well plate. The cell plate was then placed in an incubator at 37° C. with 5% CO2 for 24 hours.
(§4) The cells were then gently washed with 50 uL-100 uL cold PBS before proceeding to addition of lysis buffer. 30 uL-50 μL of room temperature lysis buffer with DNAse I (and optionally RNAsin) was added to each well. Cells were shaken/mixed thoroughly at room temperature for 5-10 minutes for lysis to take place and then 3 uL-5 μL of room temperature stop solution was added and wells were shaken/mixed again. After 2-5 minutes, the cell lysate plate was transferred to ice for RT-qPCR reaction setup. The lysates could also be frozen at −80° C. for later use.
(§5) In some cases, a direct lysis buffer was used. An appropriate volume of 3× lysis buffer (10 mM Tris, 150 mM NaCl, 1.5%-2.5% Igepal and 0.1-1 U/uL RNAsin, pH 7.4) was directly added to either K562 or A673 cells in media and mixed by pipetting 3 times. The plates were then incubated at room temperature with shaking/rocking for 20-50 minutes to allow for lysis to take place. After this time, the cell lysate plate was transferred to ice to set up for the RT-qPCR reactions. The lysates could also be frozen at −80° C. for later use.
(§6) To set up 10 uL RT-qPCR reactions, cell lysates were transferred to 384-well qPCR plates containing the master mix according to the table below. The plates were sealed, gently vortexed, and spun down before the run. The volumes were adjusted accordingly in some instances where the reaction was carried in 20 μL. The table below summarizes the components of the RT-qPCR reactions:
(§7) The RT-qPCR reaction was performed using a QuantStudio (ThermoFisher) under the following fast cycling conditions. […]

[2] = tested on: MYB; assay: Splicing RT-qPCR assay, MYB mRNA canonical junction (CJ) and alternative junction (AJ); conditions: for AC50: increase in AJ mRNA
Procedure: as §1, §2, §3, §4, §5, §6, §7

[3] = tested on: SMN2; assay: Splicing RT-qPCR panel, SMN2 canonical junction (CJ) mRNA; conditions: read-out: SMN2 IC50 (decrease in CJ mRNA levels)
Procedure: as §1, §2, §3, §4, §5, §6, §7

[4] = tested on: Target C; assay: Splicing RT-qPCR panel, Target C canonical junction (CJ) mRNA; conditions: read-out: Target C IC50 (decrease in CJ mRNA levels)
Procedure: as §1, §2, §3, §4, §5, §6, §7

[5] = tested on: MYB; assay: HiBiT protein abundance assay, MYB; conditions: modified K562 cells
Procedure: (§8) Compounds described herein were used to screen for effects on quantitative protein abundance using a HiBit assay system (Promega). Quantitative protein abundance was determined by measuring the protein levels of HiBit-tagged protein targets expressed in cell culture via luminescence using the Nano-Glo HiBiT Lytic Detection System, which uses a split complementation assay format to reconstitute NanoBiT enzyme to generate a luminescent signal. A protein abundance assay was developed such that endogenous protein targets could be modified with the HiBiT peptide tag and their abundance could be assessed after compound treatment. Briefly, K562 cell lines containing a HiBiT-modification were treated with various compounds described herein (e.g., compounds of Formulas (I), (II), or (III)). After treatment for 24 hours, the protein abundance of a specific target was determined by measuring luminescence.
(§9) Cells were maintained in IMIDM with 10% FBS. Before the assay, cells were diluted with […] growth media (IMIDM+[…] media) and were seeded in a 384-well plate at a density of 10000 cells/well (for each cell line listed in Table 12). Each compound was prepared as a 10-point 3-fold serial dilution in DMSO with the top dose at a final concentration of 10 μM in the well. Unmodified K562 cells were added at the previously specified density with DMSO to serve as an assay baseline and positive control (PC) and DMSO only with the respective modified cell lines was added to the negative control (NC) columns. Final DMSO concentration was kept at or below 0.25%. Treated cell plates were placed in an incubator at 37° C. with 5% CO2 for 24 hours. After 24 hours, 25 μL of Complete HiBit Lytic reagent was added to each well at room temperature (e.g. one plate requiring 10 mL Lytic Buffer, 100 μL LgBiT Protein, 200 μL Lytic Substrate), shaken for 5 minutes at 600 RPM, then left to sit for 10 minutes for signal to stabilize before reading on a Spark Cyto plate reader (Tecan) with a 500 ms measurement time.
(§10) To determine compound effects on protein abundance of each target in Table 12, the percent response for each respective cell line was calculated at each compound concentration as follows:
(§11) For the normalized response at each concentration, a four-parameter logistical regression was fit to the data and the response was interpolated at the 50% value to determine a concentration for protein abundance at 50% (IC50) the untreated control.

[6] = tested on: HTT; assay: HiBiT protein abundance assay, HTT; conditions: modified K562 cells
Procedure: as §8, §9, §10, §11

[7] = tested on: Target C; assay: HiBiT protein abundance assay, Target C; conditions: Homo sapiens, K562, 24 h, Table 13B, modified K562 cells
Procedure: • Promega Nano-Glo HiBiT Lytic Detection System (cat #N3030) • Coming 384-well TC-treated microplates (cat #3570) • Synthego Engineered Cells Knock-In Clones
as §9, §10, §11

[8] = Homo sapiens, 24 h, decrease in CJ mRNA, A673 or K562 cells, 24 hours treatment, RT-qPCR, read-out: HTT CJ IC50
[9] = Homo sapiens, 24 h, A673 or K562 cells, 24 hours treatment, RT-qPCR
[10] = Homo sapiens, RT-qPCR panel, canonical junction mRNA, compound concentration having 50% response in CJ decrease, read-out: HTT IC50 (decrease in CJ mRNA levels)
[11] = Homo sapiens, 24 h, decrease in CJ mRNA, A673 or K562 cells, 24 hours treatment, RT-qPCR, read-out: MYB CJ IC50
[12] = Homo sapiens, RT-qPCR panel, canonical junction mRNA, compound concentration having 50% response in CJ decrease, read-out: MYB IC50 (decrease in CJ mRNA levels)
[13] = Homo sapiens, RT-qPCR panel, canonical junction mRNA, compound concentration having 50% response in CJ decrease
[14] = Homo sapiens, A673 or K562 cells, 24 hours treatment, RT-qPCR
[15] = RT-qPCR panel, canonical junction mRNA, compound concentration having 50% response in CJ decrease
[16] = Homo sapiens, gene panel, CJ qPCR, protocol of Example 142, read-out: HTT IC50 (decrease in CJ mRNA levels)
[17] = Homo sapiens, gene panel, CJ qPCR, protocol of Example 142, read-out: MYB IC50 (decrease in CJ mRNA levels)
[18] = Homo sapiens, gene panel, CJ qPCR, protocol of Example 142
[19] = Homo sapiens, K562, 24 h, Table 13B

Structure (SMILES)	AC50 [1, 9] [nM]	pIC50 [1, 10]	pIC50 [2, 11]	AC50 [2, 9] [nM]	pIC50 [2, 12]	pIC50 [3, 13]	pIC50 [4, 13]	further results
CN(c1ccc(-c2ccc(-n3cccn3)c3nn[nH]c23)nn1)[C@@H]1C[C@H]2CC[C@@H](C1)N2 [Compound 119]	1000 to 10000	6.00 to 7.00	6.00 to 7.00	100 to 1000	6.00 to 7.00	6.00 to 7.00	6.00 to 7.00	pIC50 [1, 8]: 6.00 to 7.00
CC1(C)CC(Oc2ccc(-c3ccc(-c4cn[nH]c4)c4cn[nH]c34)nn2)CC(C)(C)N1 [Compound 138]	100 to 1000	6.00 to 7.00	6.00 to 7.00	100 to 1000	6.00 to 7.00	6.00 to 7.00	6.00 to 7.00	pIC50 [1, 8]: 6.00 to 7.00
CN(c1cnc(-c2cc(F)c(-c3cn[nH]c3)c3cn[nH]c23)nn1)[C@@H]1C[C@H]2CC[C@@H](C1)N2 [Compound 149]	–	> 7.00	–	–	5.00 to 6.00	6.00 to 7.00	6.00 to 7.00	AC50 [1, 14]: < 100 nM; pIC50 ([2]; Homo sapiens, decrease in CJ mRNA, A673 or K562 cells, 24 hours treatment, RT-qPCR, read-out: MYB CJ IC50): 5.00 to 6.00; AC50 [2, 14]: 1000 to 10000 nM
CN(c1cnc(-c2cc(F)c(-c3cnn(C)c3)c3cn[nH]c23)nn1)[C@@H]1C[C@H]2CC[C@@H](C1)N2 [Compound 290]	< 100	> 7.00	5.00 to 6.00	100 to 1000	5.00 to 6.00	6.00 to 7.00	6.00 to 7.00	–
c1cnn(-c2ccc(-c3ccc(O[C@@H]4C[C@H]5CC[C@@H](C4)N5)nn3)c3cn[nH]c23)c1 [Compound 308]	< 100	> 7.00	> 7.00	< 100	> 7.00	> 7.00	> 7.00	–
CN(c1ccc(-c2ccc(-n3cccn3)c3[nH]ncc23)nn1)[C@@H]1C[C@H]2CC[C@@H](C1)N2 [Compound 409]	< 100	> 7.00	6.00 to 7.00	100 to 1000	6.00 to 7.00	> 7.00	> 7.00	–
c1cnn(-c2ccc(-c3cnc(N4CCNC(C5CC5)C4)nn3)c3cn[nH]c23)c1 (stereo not shown) [Compound 555]	–	–	–	–	–	–	–	pIC50 ([1]; RT-qPCR panel, canonical junction mRNA, compound concentration having 50% response in CJ decrease, read-out: HTT IC50 (decrease in CJ mRNA levels)): > 7.00; pIC50 ([2]; RT-qPCR panel, canonical junction mRNA, compound concentration having 50% response in CJ decrease, read-out: MYB IC50 (decrease in CJ mRNA levels)): 5.00 to 6.00; pIC50 [3, 15]: 6.00 to 7.00; pIC50 [4, 15]: 6.00 to 7.00; pIC50 ([5]; Table 13A, 24 hours): 5.00 to 6.00; pIC50 ([6]; Table 13A, 24 hours): 6.00 to 7.00
c1cnn(-c2ccc(-c3cnc(O[C@H]4C[C@H]5COC[C@@H](C4)N5)nn3)c3cn[nH]c23)c1 [Compound 585]	–	< 5.00	–	–	< 5.00	< 5.00	< 5.00	–
COc1nc(-c2ccc(N(C)[C@@H]3CCN[C@H](C)C3)nn2)ccc1-c1cn[nH]c1 [Compound 909]	–	–	–	–	–	–	–	pIC50 [1, 16]: 5.00 to 6.00; pIC50 [2, 17]: 5.00 to 6.00; pIC50 [3, 18]: 6.00 to 7.00; pIC50 [5, 19]: 5.00 to 6.00; pIC50 [6, 19]: 5.00 to 6.00; pIC50 [7]: 5.00 to 6.00
COc1nc(-c2ccc(OC3CC(C)(C)NC(C)(C)C3)nc2)ccc1-c1cnn(C)c1 [Compound 990]	–	–	–	–	–	–	–	pIC50 [1, 16]: < 5.00; pIC50 [2, 17]: < 5.00; pIC50 [3, 18]: 5.00 to 6.00; pIC50 [4, 18]: < 5.00
